Literature values in patent publication US8470831B2, “Acrylamido derivatives useful as inhibitors of the mitochondrial permeability transition” (Cogenia SRL, priority 2008, dated 2013).

How the values were obtained:
[1] = tested on: rat liver mitochondrial membranes
[2] = mdx and Scgd-/- mice
[3] = mouse, myocardial infarction and reperfusion injury
[4] = rat, transient focal cerebral ischemia
[5] = rat, TNF-α-dependent acute inflammatory hepatitis
[6] = patients, one month treatment

## COc1ccc(CN2CCN(CCCSc3cc(C(C)(C)C)c(O)c(C(C)(C)C)c3)CC2)c(OC)c1OC [Compound S-15176, N-[(3,5-di-tert-butyl-4-hydroxy-1-thiophenyl)]-3-propyl-N′-(2,3,4-trimethoxybenzyl)piperazine]
[1]
  mitochondrial membrane depolarization and respiration uncoupling: induces depolarization of the mitochondrial membrane and respiration uncoupling

## C/C=C/C[C@@H](C)[C@@H](O)[C@H]1C(=O)N[C@@H](CC)C(=O)N(C)[C@H](C)C(=O)N(CC)[C@@H](C(C)C)C(=O)N[C@@H](C(C)C)C(=O)N(C)[C@@H](CC(C)C)C(=O)N[C@@H](C)C(=O)N[C@H](C)C(=O)N(C)[C@@H](CC(C)C)C(=O)N(C)[C@@H](CC(C)C)C(=O)N(C)[C@@H](C(C)C)C(=O)N1C [Debio-025]
[2]
  mitochondrial swelling and necrotic disease: reduced mitochondrial swelling and necrotic disease
[3]
  infarct size: reduced infarct size

## C/C=C/C[C@@H](C)[C@@H](O)[C@H]1C(=O)N[C@@H](CC)C(=O)N(C)CC(=O)N(C)[C@@H]([C@@H](C)CC)C(=O)N[C@@H](C(C)C)C(=O)N(C)[C@@H](CC(C)C)C(=O)N[C@@H](C)C(=O)N[C@H](C)C(=O)N(C)[C@@H](CC(C)C)C(=O)N(C)[C@@H](CC(C)C)C(=O)N(C)[C@@H](C(C)C)C(=O)N1C [NIM811]
[4]
  protection: 40%

## Cyclosporin A
[5]
  liver damage: strongly reduces liver damage
[6]
  mitochondrial function: amelioration of mitochondrial function
